# Results reported in ChEMBL document CHEMBL1153704, “Imidazo[1,2-a]pyrazine diaryl ureas: inhibitors of the receptor tyrosine kinase EphB4” (Bioorg Med Chem Lett, 2009).
# Biological target: T1, Ephrin type-B receptor 4 (Homo sapiens, UniProt P54760)
# T1 sequence (P54760 whole entry): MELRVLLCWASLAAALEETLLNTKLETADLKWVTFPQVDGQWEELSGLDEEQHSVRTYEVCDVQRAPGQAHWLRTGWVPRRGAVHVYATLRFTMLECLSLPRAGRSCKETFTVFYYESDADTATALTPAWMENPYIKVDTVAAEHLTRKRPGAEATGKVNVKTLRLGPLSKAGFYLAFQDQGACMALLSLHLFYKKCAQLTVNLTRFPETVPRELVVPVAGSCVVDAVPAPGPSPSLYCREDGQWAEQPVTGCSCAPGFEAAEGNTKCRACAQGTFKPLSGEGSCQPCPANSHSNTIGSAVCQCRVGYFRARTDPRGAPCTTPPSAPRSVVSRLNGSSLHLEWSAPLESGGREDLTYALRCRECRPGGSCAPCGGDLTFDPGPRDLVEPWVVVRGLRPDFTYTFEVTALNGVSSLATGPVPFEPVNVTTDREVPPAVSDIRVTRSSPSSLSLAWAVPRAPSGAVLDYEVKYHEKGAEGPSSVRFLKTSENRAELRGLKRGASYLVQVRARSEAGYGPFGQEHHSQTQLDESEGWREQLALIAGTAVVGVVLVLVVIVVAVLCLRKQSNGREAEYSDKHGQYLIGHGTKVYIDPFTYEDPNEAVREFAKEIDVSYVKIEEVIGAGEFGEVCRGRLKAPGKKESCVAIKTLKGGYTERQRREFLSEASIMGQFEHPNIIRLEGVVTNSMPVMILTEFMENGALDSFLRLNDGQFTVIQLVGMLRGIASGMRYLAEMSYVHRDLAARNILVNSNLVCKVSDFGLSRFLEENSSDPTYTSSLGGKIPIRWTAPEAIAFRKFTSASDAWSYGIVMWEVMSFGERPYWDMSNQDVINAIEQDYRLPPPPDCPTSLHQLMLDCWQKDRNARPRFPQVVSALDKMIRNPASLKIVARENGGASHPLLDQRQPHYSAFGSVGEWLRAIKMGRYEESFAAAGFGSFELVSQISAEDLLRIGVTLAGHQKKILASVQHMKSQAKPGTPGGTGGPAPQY
# Experiment: Inhibition of EphB4 after 1 hr
row,SMILES,IC50 [nM]
1,O=C(Nc1cc(Cl)cc(Cl)c1)Nc1cccc(-c2cn3ccnc3c(NCc3ccncc3)n2)c1,1800
2,O=C(Nc1cccc(-c2cn3ccnc3c(NCc3ccncc3)n2)c1)Nc1cc(Cl)c(Cl)cc1Cl,517
3,COc1ccc(Cl)cc1NC(=O)Nc1cccc(-c2cn3ccnc3c(N)n2)c1,5400
4,O=C(Nc1cccc(Br)c1)Nc1cccc(-c2cn3ccnc3c(NCc3ccncc3)n2)c1,213
5,CCOc1cc(OCC)c(C(F)(F)F)cc1NC(=O)Nc1cccc(-c2cn3ccnc3c(NCc3ccncc3)n2)c1,211
6,O=C(Nc1cccc(-c2cn3ccnc3c(NCc3ccncc3)n2)c1)Nc1ccc(Cl)cc1Cl,1900
7,CNc1nc(-c2cccc(NC(=O)Nc3cc(Cl)ccc3OC)c2)cn2ccnc12,5700
8,COc1cccc(NC(=O)Nc2cccc(-c3cn4ccnc4c(NCc4ccncc4)n3)c2)c1,1700
9,O=C(NCc1cccc(C(F)(F)F)c1)c1cccc(-c2cn3ccnc3c(NCc3ccncc3)n2)c1,11100
10,O=C(Nc1cccc(-c2cn3ccnc3c(NCc3ccncc3)n2)c1)Nc1cccc(Cl)c1Cl,5700
11,O=C(Nc1ccc(F)cc1)Nc1cccc(-c2cn3ccnc3c(NCc3ccncc3)n2)c1,7400
12,COc1ccc(Cl)cc1NC(=O)Nc1cccc(-c2cn3ccnc3c(NCc3ccncc3)n2)c1,77
13,COc1ccc(C)cc1NC(=O)Nc1cccc(-c2cn3ccnc3c(NCc3ccncc3)n2)c1,78
14,O=C(Nc1cccc(-c2cn3ccnc3c(NCc3ccncc3)n2)c1)Nc1ccccc1Br,1700
15,O=C(Nc1ccc(Cl)cc1)Nc1cccc(-c2cn3ccnc3c(NCc3ccncc3)n2)c1,4600
16,CSc1cccc(NC(=O)Nc2cccc(-c3cn4ccnc4c(NCc4ccncc4)n3)c2)c1,1200
17,O=C(Nc1cccc(-c2cn3ccnc3c(NCc3ccncc3)n2)c1)Nc1cc(Cl)ccc1Oc1ccccc1,138

row,SMILES,IC50 [nM]
1,Cc1ccc(C)c(NC(=O)Nc2cccc(-c3cn4ccnc4c(NCc4ccncc4)n3)c2)c1,938
2,O=S(=O)(Nc1cccc(-c2cn3ccnc3c(NCc3ccncc3)n2)c1)c1cccc(C(F)(F)F)c1,50000
3,Cc1ccc(Cl)cc1NC(=O)Nc1cccc(-c2cn3ccnc3c(NCc3ccncc3)n2)c1,160
4,O=C(Nc1cccc(Oc2ccccc2)c1)Nc1cccc(-c2cn3ccnc3c(NCc3ccncc3)n2)c1,10500
5,COc1cc(OC)c(C(F)(F)F)cc1NC(=O)Nc1cccc(-c2cn3ccnc3c(NCc3ccncc3)n2)c1,518
6,Cc1ccc(NC(=O)Nc2cccc(-c3cn4ccnc4c(NCc4ccncc4)n3)c2)cc1,7900
7,O=C(Nc1cccc(-c2cn3ccnc3c(NCc3ccncc3)n2)c1)Nc1ccccc1Cl,2900
8,COc1ccc(C#N)cc1NC(=O)Nc1cccc(-c2cn3ccnc3c(NCc3ccncc3)n2)c1,125
9,O=C(Nc1cccc(-c2cn3ccnc3c(NCc3ccncc3)n2)c1)Nc1cc(Cl)ccc1Cl,101
10,N#Cc1cccc(NC(=O)Nc2cccc(-c3cn4ccnc4c(NCc4ccncc4)n3)c2)c1,1900
11,O=C(Nc1cccc(-c2cn3ccnc3c(NCc3ccncc3)n2)c1)Nc1c(Cl)cccc1Cl,1000
12,O=C(Nc1cccc(-c2cn3ccnc3c(NCc3ccncc3)n2)c1)Nc1ccc(Cl)c(Cl)c1,2500
13,COc1cc(OC)c(NC(=O)Nc2cccc(-c3cn4ccnc4c(NCc4ccncc4)n3)c2)cc1Br,206
14,Cc1cccc(NC(=O)Nc2cccc(-c3cn4ccnc4c(NCc4ccncc4)n3)c2)c1,300
15,O=C(Nc1cccc(Cl)c1)Nc1cccc(-c2cn3ccnc3c(NCc3ccncc3)n2)c1,165
16,O=C(Nc1cccc(-c2cn3ccnc3c(NCC3CCNCC3)n2)c1)Nc1cccc(C(F)(F)F)c1,50000
17,COc1cc(OC)c(NC(=O)Nc2cccc(-c3cn4ccnc4c(NCc4ccncc4)n3)c2)cc1Cl,402

# Now from value to compound:
row,IC50 [nM],SMILES
1,5300,O=C(Nc1cccc(-c2cn3ccnc3c(NCc3ccc(C(=O)O)cc3)n2)c1)Nc1cccc(C(F)(F)F)c1
2,810,Cc1ccc(NC(=O)Nc2cccc(-c3cn4ccnc4c(NCc4ccncc4)n3)c2)cc1C(F)(F)F
3,2400,O=C(Cc1cccc(C(F)(F)F)c1)Nc1cccc(-c2cn3ccnc3c(NCc3ccncc3)n2)c1
4,105,O=C(Nc1cccc(-c2cn3ccnc3c(OCc3ccncc3)n2)c1)Nc1cccc(C(F)(F)F)c1
5,50000,O=C(Nc1ccc(-c2cn3ccnc3c(NCc3ccncc3)n2)cc1)Nc1cccc(C(F)(F)F)c1
6,744,O=C(Nc1cccc(-c2cn3ccnc3c(NCc3ccncc3)n2)c1)c1cccc(C(F)(F)F)c1
7,1200,O=C(Nc1cccc(-c2cn3ccnc3c(NCc3ccncc3)n2)c1)Nc1ccc(Cl)c(C(F)(F)F)c1
8,66,O=C(Nc1cccc(-c2cn3ccnc3c(NCc3ccncc3)n2)c1)Nc1cc(C(F)(F)F)ccc1Cl
9,850,O=C(Nc1cccc(-c2cn3ccnc3c(NCc3ccncc3)n2)c1)Nc1ccc(F)c(C(F)(F)F)c1
10,37,O=C(Nc1cccc(-c2cn3ccnc3c(NCc3ccncc3)n2)c1)Nc1cc(C(F)(F)F)ccc1O
11,2100,O=C(NCc1cccc(C(F)(F)F)c1)Nc1cccc(-c2cn3ccnc3c(NCc3ccncc3)n2)c1
12,69,CN(Cc1ccncc1)c1nc(-c2cccc(NC(=O)Nc3cccc(C(F)(F)F)c3)c2)cn2ccnc12
13,7800,O=C(Nc1cccc(-c2cn3ccnc3c(NCc3cccnc3)n2)c1)Nc1cccc(C(F)(F)F)c1
14,6800,O=C(NCc1cccc(-c2cn3ccnc3c(NCc3ccncc3)n2)c1)Nc1cccc(C(F)(F)F)c1
15,50000,O=C(Nc1cccc(-c2cn3ccnc3c(NCc3ccccc3)n2)c1)Nc1cccc(C(F)(F)F)c1
16,158,O=C(Nc1cccc(-c2cn3ccnc3c(NCCc3ccncc3)n2)c1)Nc1cccc(C(F)(F)F)c1

# Biological target: T2, Ephrin type-B receptor 4 (Homo sapiens) (UniProt P54760)
# T2 sequence (whole entry): T1 sequence (P54760 whole entry)
# Experiment: Inhibition of EphB4 at 10 uM after 1 hr
row,inhibition [%],SMILES
1,32,O=C(Nc1cccc(-c2cn3ccnc3c(Nc3ccncc3)n2)c1)Nc1cccc(C(F)(F)F)c1

# Biological target: T2, Ephrin type-B receptor 4 (Homo sapiens)
# Experiment: Inhibition of EphB4 at 1 uM after 1 hr
row,SMILES,inhibition [%]
1,O=C(Nc1ccc(Br)cc1)Nc1cccc(-c2cn3ccnc3c(NCc3ccncc3)n2)c1,22
2,COc1ccc(C(F)(F)F)cc1NC(=O)CNc1cccc(-c2cn3ccnc3c(NCc3ccncc3)n2)c1,2.9
3,COc1ccc(NC(=O)Nc2cccc(-c3cn4ccnc4c(NCc4ccncc4)n3)c2)cc1,10
4,COc1ccccc1NC(=O)Nc1cccc(-c2cn3ccnc3c(NCc3ccncc3)n2)c1,54
5,O=C(Nc1ccccc1)Nc1cccc(-c2cn3ccnc3c(NCc3ccncc3)n2)c1,10
6,O=C(Nc1cccc(-c2cn3ccnc3c(NCc3ccncc3)n2)c1)Nc1ccccc1F,22
7,O=C(Nc1cccc(-c2cn3ccnc3c(NCc3ccncc3)n2)c1)Nc1ccccc1Oc1ccccc1,22
8,O=C(Nc1cccc(-c2cn3ccnc3c(NCc3ccncc3)n2)c1)Nc1ccccc1C(F)(F)F,41
9,Cc1ccccc1NC(=O)Nc1cccc(-c2cn3ccnc3c(NCc3ccncc3)n2)c1,30
10,CSc1ccccc1NC(=O)Nc1cccc(-c2cn3ccnc3c(NCc3ccncc3)n2)c1,63
11,CCc1ccc(NC(=O)Nc2cccc(-c3cn4ccnc4c(NCc4ccncc4)n3)c2)cc1,10

# Second part, the compound after the results:
row,inhibition [%],SMILES
1,47,O=C(Nc1cccc(F)c1)Nc1cccc(-c2cn3ccnc3c(NCc3ccncc3)n2)c1
2,10,O=C(Nc1ccc(C(F)(F)F)cc1)Nc1cccc(-c2cn3ccnc3c(NCc3ccncc3)n2)c1
3,1,O=C(Nc1cccc(-c2cn3ccnc3c(Nc3cccnc3)n2)c1)Nc1cccc(C(F)(F)F)c1
